In US6790971B1, “19-Nor-steroids” (Aventis Pharma S.A., priority 1989, dated 2004):

Legend:
[1] = molecular target: T1, Estrogenic Receptor of Mouse Uterus (Mus musculus, UniProt P19785); experiment: Relative affinity of the bond, estrogen receptor (tritiated estradiol displacement); format: binding; settings: for affinity for the estrogen receptors: at the second time (incubation); for Relative affinity of the bond (RAB), Oestrogen, 2 H: incubation 2 H at 0° C.; for Relative affinity of the bond (RAB), Oestrogen, 2 H / Relative affinity of the bond (RAB), Oestrogen, 6 H / Relative affinity of the bond (RAB), Oestrogen Receptors, 5 Hrs / Relative affinity of the bond (RAB), Oestrogen Receptors, 2 Hrs: RAB=100(CH)/(CX); for Relative affinity of the bond (RAB), Oestrogen, 6 H: incubation 6 H (second time); for Relative affinity of the bond (RAB), Oestrogen Receptors, 5 Hrs: incubation time 5 Hrs; for Relative affinity of the bond (RAB), Oestrogen Receptors, 5 Hrs / Relative affinity of the bond (RAB), Oestrogen Receptors, 2 Hrs: second part of the table; for Relative affinity of the bond (RAB), Oestrogen Receptors, 2 Hrs: incubation time 2 Hrs
T1 construct: their uteri were removed, then homogenized at 0° C; from tissue; host or cells: uterine cytosol (105,000 g supernatant) of immature female mice
T1 sequence (P19785 1-599): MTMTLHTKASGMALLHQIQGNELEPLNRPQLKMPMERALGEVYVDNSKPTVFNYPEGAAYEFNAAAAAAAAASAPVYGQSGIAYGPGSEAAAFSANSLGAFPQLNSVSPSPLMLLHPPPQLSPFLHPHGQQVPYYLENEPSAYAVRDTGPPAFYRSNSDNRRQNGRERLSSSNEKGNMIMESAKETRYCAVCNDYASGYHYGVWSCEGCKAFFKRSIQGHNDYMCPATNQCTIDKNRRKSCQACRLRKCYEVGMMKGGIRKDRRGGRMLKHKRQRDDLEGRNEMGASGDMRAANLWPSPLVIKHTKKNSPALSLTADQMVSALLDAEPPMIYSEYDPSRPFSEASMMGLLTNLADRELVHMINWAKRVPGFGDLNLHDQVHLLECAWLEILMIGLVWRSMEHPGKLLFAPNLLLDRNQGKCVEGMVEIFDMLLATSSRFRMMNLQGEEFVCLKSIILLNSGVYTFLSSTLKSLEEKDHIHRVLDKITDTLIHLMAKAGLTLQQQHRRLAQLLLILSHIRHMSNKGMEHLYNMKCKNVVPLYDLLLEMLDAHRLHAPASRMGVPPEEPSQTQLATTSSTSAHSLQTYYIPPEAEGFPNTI
Description: Estrogenic Receptor of Mouse Uterus:
Impuberal female mice aged from 18 to 21 days were killed and their uteri were removed, then homogenized at 0° C. with the aid of a Potter teflon-glass in a TS buffered solution (10 mM Tris, 0.25 M saccharose, HCL pH 7.4) (1 g of tissue for 25 ml of TS). The homogenate was ultracentrifuged (105,000 g×90 min) at 0° C. and aliquots of the supernatant were incubated at 0° C. or at 25° C. for a time (t) with a constant concentration (T) of tritiated estradiol in the presence of increasing concentrations (0-1000×10^−9 M) either of cold estradiol, or of the cold product to be tested. The concentration (B) of bound tritiated estradiol was measured in each incubate by the technique of adsorption on dextran carbon.
Calculation of the Relative Affinty of the Bond
The calculation of the Relative Affinity of the Bond (RAB) was identical for all the receptors. The following 2 curves were traced; the percentage of the bound tritiated hormone [formula]
was a function of the logarithm of the concentration of the cold reference hormone and [formula]
as a function of the logarithm of the concentration of the cold product tested.
One determined the straight line of the equation [formula]
The intersections of the straight line I50 and of the curves make it possible to evaluate the concentrations of the cold reference hormone (CH) and of the tested cold product (CX) which inhibit to an extend of 50% the binding of the tritiated hormone upon the receptor. The relative affinity of the bond (RAB) of the tested product is determined by the equation

[2] = tested on: MCF-7 mammary tumoral cells; experiment: Anti-proliferative activity upon the growth of MCF-7 cells (DNA measurement with DABA); format: cell-based; settings: 6 days, inhibition of the increase of DNA, read-out: concentration which inhibited the growth of MCF7 to an extent of 50% (IC50)
Description: B. Anti-proliferative activity of the products of the invention upon the growth of MCF-7 mammary tumoral cells.
The MCF-7 strains were kept under culture in FCS(1) medium at 37° C. under a humid atmosphere containing 5% CO2 and the cells at subconfluence were harvested by trypsination (0.05% trypsine, 0.02% EDTA), then rinsed by gentle centrifugation. A sample of the cells in suspension was counted on Malassez cell.
The cells, resuspended in FCS medium, were seeded at a rate of 30,000 cells per pit in multi-pit plates (24 pits of 2.5 cm^2) and twenty four hours after seeding (DO), the product to be tested was added to the medium in ethanolic solution (final concentration in ethanol: 0.1%), at a concentration of 10^−12 to 10^−6 M, the control pits receiving the same concentration of ethanol. The media were renewed every 48 hours and at the end of the experiment (D6), the medium was sucked off and the cells were immediately fixed with 150 microliters of methanol to estimate the DNA. The anti-proliferative activity of the products was evaluated by their capacity to inhibit the increase of DNA.
The DNA was measured by a fluorimetric method employing DABA (3,5-diaminobenzoic acid) (2): 150 microliters of DABA were added to each of the pits and the plates were then incubated for 45 minutes at 56° C., then 2 ml of 1 N HCl were added. The fluorescence was measured with the aid of a fluorimeter (length of the exiting wave: 408 nm, length of the emitting wave: 501 nm). The quantity of DNA per pit was evaluated with reference to a standard scale obtained by treating a standard DNA from calf thymus under the same conditions.
The concentration in nM which inhibited the growth of MCF7 to an extent of 50% (IC50) was determined in the manner indicated below:
(1) The fetal calf serum (FCS) culture medium was prepared as follows: MEM medium (minimal essential medium) to which were added:
Non-essential amino acids (GIBCO),
Peni-strepto (100 U/ml penicillin, 0.1 mg/ml streptomycin),
Fetal calf serum containing no steroids (10% final concentration).
(2) Puzas and Goodman, Analytical Biochemistry, Vol. 86, pp. 50, 1978.

SMILES	affinity for the estrogen receptors [1]	IC50 [2]	Relative affinity of the bond (RAB), Oestrogen, 2 H [1]	Relative affinity of the bond (RAB), Oestrogen, 6 H [1]	Relative affinity of the bond (RAB), Oestrogen Receptors, 5 Hrs [1]	Relative affinity of the bond (RAB), Oestrogen Receptors, 2 Hrs [1]
CCCCN(C)C(=O)CCCCCCCc1ccc([C@H]2C[C@]3(C)[C@@H](O)CC[C@H]3[C@@H]3CCc4cc(O)ccc4[C@H]32)cc1 [Example 8, N-Butyl-4-[3,17β-dihydroxy-Δ^1,3,5(10)-estratrien-11β-yl]-N-methyl benzene octanamide]	marked affinity	0.04 nM	–	–	–	–
CCCCN(C)C(=O)CCCCCC#Cc1ccc([C@H]2C[C@]3(C)[C@@H](O)CC[C@H]3[C@@H]3CCc4cc(O)ccc4[C@H]32)cc1 [Example 35]	–	0.04 nM	0.13	12	–	–
CCCCN(C)C(=O)COCCCCCC#Cc1ccc([C@H]2C[C@]3(C)[C@@H](O)CC[C@H]3[C@@H]3CCc4cc(O)ccc4[C@H]32)cc1 [Example 37, 2-((7-(4-(3,17β-dihydroxy-Δ^1,3,5(10)-estratrien-11β-yl)-phenyl)-6-heptynyl.)-oxy)-N-butyl-N-methyl Acetamide]	marked affinity	0.03 nM	0.6	28	–	–
CCCCN(C)C(=O)COCCCCCOc1ccc([C@H]2C[C@]3(C)[C@@H](O)CC[C@H]3[C@@H]3CCc4cc(O)ccc4[C@H]32)cc1 [Example 43, N-butyl-[5-[4-(3,17β-dihydroxy-Δ^1,3,5(10)-estratrien-11β-yl)-phenoxy]-pentyloxy]-N-methyl acetamide]	–	0.002 nM	4.0	3.0	–	–
CCCCN(C)C(=O)CCCCCCCOc1ccc([C@H]2C[C@]3(C)[C@@H](O)CC[C@H]3[C@@H]3CCc4cc(O)ccc4[C@H]32)cc1 [Example 46, N-butyl-8-[4-(3,17β-dihydroxy-Δ^1,3,5,(10)-estratrien-11β-yl)-phenoxy]-N-methyl Octanamide]	marked affinity	0.006 nM	0.3	65	–	–
C#C[C@]1(O)CC[C@H]2[C@@H]3CCc4cc(O)ccc4[C@H]3[C@@H](CCCCCCCCCCC(=O)N(C)C(C)C)C[C@@]21C [Example 55, 3,17β-Dihydroxy-N-Methyl-N-Isopropyl-19-Nor-17α-Δ^1,3,5(10)-Pregnatrien-20-Yn-118-Undecanamide]	marked affinity	0.01 nM	1.2	45	–	–
CC(C)N(C)C(=O)COCCCCCCCC[C@H]1C[C@]2(C)[C@@H](O)CC[C@H]2[C@@H]2CCc3cc(O)ccc3[C@@H]12 [Example 71, [[8(3,17beta-dihydroxy-estra-1,3,5(10)-trien-11beta-yl)-octyl]-oxy]-N-methyl-N-(1-methylethyl) acetamide]	marked affinity	0.1 nM	0.6	50	–	–
CCCCN(C)C(=S)COCCCCCOc1ccc([C@H]2C[C@]3(C)[C@@H](O)CC[C@H]3[C@@H]3CCc4cc(O)ccc4[C@H]32)cc1 [Example 78, N-butyl-[5-[4-(3,17β-dihydroxy-δ^1,3,5(10)-estratrien-11β-yl)-phenoxy]-pentyloxy]-N-methyl-ethanethioamide]	–	0.03 nM	–	–	20	–
CCCCN(C)C(=S)CCCCCCCOc1ccc([C@H]2C[C@]3(C)[C@@H](O)CC[C@H]3[C@@H]3CCc4cc(O)ccc4[C@H]32)cc1 [Example 79, N-butyl-8-(4-(3,17β-dihydroxy-δ^1,3,5(10)-estratrien-11β-yl)-phenoxy)-N-methyloctanethioamide]	–	0.035 nM	–	–	16	–
CN(CC(F)(F)C(F)(F)C(F)(F)F)C(=O)CCCCCCCOc1ccc([C@H]2C[C@]3(C)[C@@H](O)CC[C@H]3[C@@H]3CCc4cc(O)ccc4[C@H]32)cc1 [Example 82, 8-(4-(δ^1,3,5(10)-estratrien-3,17β-diol-11β-yl)-phenoxy)-N-(2,2,3,3,4,4,4-heptafluorobutyl)-N-methyl-octanamide]	–	0.02 nM	–	–	23	0
CCCCN(C)C(=O)COCCCCCCOc1ccc([C@H]2C[C@]3(C)[C@@H](O)CC[C@H]3[C@@H]3CCc4cc(O)ccc4[C@H]32)cc1 [Example 83]	–	0.007 nM	–	–	29	3.3
CCCCN(C)C(=O)CSCCCCCc1ccc([C@H]2C[C@]3(C)[C@@H](O)CC[C@H]3[C@@H]3CCc4cc(O)ccc4[C@H]32)cc1 [Example 86]	–	0.009 nM	–	–	11.7	–
CCCCN(C)C(=O)CCCCCCCSc1ccc([C@H]2C[C@]3(C)[C@@H](O)CC[C@H]3[C@@H]3CCc4cc(O)ccc4[C@H]32)cc1 [Example 92, N-Butyl-8-(4-(δ^1,3,5(10)-Estratrien-3,17β-Diol-11 β-yl)-Phenyl-Thio)-N-Methyl-Octanamide]	marked affinity	0.015 nM	–	–	47	2.8
CCCCN(C)C(=O)CSCCCCCOc1ccc([C@H]2C[C@]3(C)[C@@H](OC(=O)CCC(=O)O)CC[C@H]3[C@@H]3CCc4cc(O)ccc4[C@H]32)cc1 [Example 96, Monobutanedioate of 11β-(4-(5-((2-(Butyl-Methylamino)-2-Oxoethyl)-Thio)-Pentyloxy)-Phenyl)δ^1,3,5(10)-Estratrien-3-ol-17 β-yl]	–	–	–	–	16	–
